Data from PMC4558462, “A new small molecule inhibitor of soluble guanylate cyclase” (Bioorganic & Medicinal Chemistry, 2015).
“Also recorded” adds a separate entry of the source.

Target: T1, membrane-bound GCs (pGC) (Rattus norvegicus, UniProt P18910)
T1 sequence (P18910 29-1057): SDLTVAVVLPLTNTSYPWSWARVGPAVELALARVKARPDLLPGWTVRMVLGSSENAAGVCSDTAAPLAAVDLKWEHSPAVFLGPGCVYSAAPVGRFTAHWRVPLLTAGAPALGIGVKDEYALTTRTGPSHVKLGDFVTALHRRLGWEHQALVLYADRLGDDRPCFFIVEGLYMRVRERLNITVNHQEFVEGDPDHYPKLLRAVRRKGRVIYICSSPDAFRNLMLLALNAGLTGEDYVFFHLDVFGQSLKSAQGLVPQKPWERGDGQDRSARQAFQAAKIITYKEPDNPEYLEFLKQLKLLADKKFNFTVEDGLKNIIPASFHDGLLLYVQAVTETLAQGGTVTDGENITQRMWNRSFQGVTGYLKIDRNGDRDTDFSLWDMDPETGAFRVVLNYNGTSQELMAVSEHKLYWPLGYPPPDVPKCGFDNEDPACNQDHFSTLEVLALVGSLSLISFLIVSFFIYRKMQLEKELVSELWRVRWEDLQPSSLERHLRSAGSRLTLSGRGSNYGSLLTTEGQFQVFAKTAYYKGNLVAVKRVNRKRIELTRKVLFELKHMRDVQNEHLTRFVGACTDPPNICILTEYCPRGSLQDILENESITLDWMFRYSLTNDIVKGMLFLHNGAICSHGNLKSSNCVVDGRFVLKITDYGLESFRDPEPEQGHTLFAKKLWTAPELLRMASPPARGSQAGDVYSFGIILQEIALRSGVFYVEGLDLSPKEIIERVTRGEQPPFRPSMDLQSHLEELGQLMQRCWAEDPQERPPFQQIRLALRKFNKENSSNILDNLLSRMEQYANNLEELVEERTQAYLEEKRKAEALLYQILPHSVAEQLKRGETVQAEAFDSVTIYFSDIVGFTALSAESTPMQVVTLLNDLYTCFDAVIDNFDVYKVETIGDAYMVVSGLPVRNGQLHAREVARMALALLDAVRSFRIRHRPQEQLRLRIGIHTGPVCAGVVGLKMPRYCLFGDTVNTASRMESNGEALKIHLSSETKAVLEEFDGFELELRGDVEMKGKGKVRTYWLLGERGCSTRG
Test: Particulate guanylate cyclase assay in purified rat lung membranes
Format: biochemical
Description: Purified rat lung membranes (20 μg protein/200 μL) were incubated in Tris buffer with 10 mM phosphocreatine, 10 units/mL creatine phosphokinase, and 10 μM ODQ to inhibit NO-activated GC. The reaction took place with 0.3 mM MgCl, 0.5 mM MgATP, and 1 mM MgGTP, at 37 °C. The compound was added and 1 μM ANP used to activate pGC. cGMP formation was allowed to proceed for 10.5–12.5 min and was subsequently measured by radioimmunoassay.

O=[N+]([O-])c1ccc2nc(Nc3ccc(O)cc3)c(Nc3ccc(O)cc3)nc2c1 [Compound 10, 4,4′-((6-Nitroquinoxaline-2,3-diyl)bis(azanediyl))diphenol] gave a Hill slope (Basal (listed under ANP group)) of 2, an IC50 (Basal (listed under ANP group)) of 15 ± 2 µM and a Hill slope (GC activator ANP 10 nM) of 2. The IC50 (GC activator ANP 10 nM, rat lung membranes, 10 μM ODQ) was 21 ± 3 µM, the Hill slope (GC activator ANP 1 μM) was 1 and the IC50 (GC activator ANP 1 μM, rat lung membranes, 10 μM ODQ) was 25 ± 13 µM. The “inhibition of pGC-generated cGMP (in words)” value (rat lung membranes, atrial natriuretic peptide stimulation, 10 μM ODQ) was “showed inhibition; also recorded: Inhibition of particulate GC was also observed”.
